Patent US9402821B2, “Methods and pharmaceutical compositions for treatment of cystic fibrosis” (INSERM (Institut National de la sante et de la Recherche …, priority 2012, dated 2016)

System: IL-8 promoter
Assay: IL-8 promoter luciferase reporter / IL-8 mRNA qPCR, TNFα-stimulated cells
Assay type: cell-based
Conditions: TNFα 10 ng/ml; bronchial epithelial cells and heterologous HeLa models (FIGS. 2A, B)
Description: Cells were transiently transfected by the short IL-8 promoter-firefly luciferase reporter and renilla luciferase reference and inflammation was induced by 10 ng/ml TNFα for 1 h. A. HeLa cells were pre-treated with diluent or different doses of sulindac 1 h before inflammation induction and 4 h after. IL-8 promoter activity in cells treated with sulindac+TNFα was expressed in percent of diluent+TNFα. B. After treatment, HeLa Ctr cells were lysed with TRIzol (Invitrogen). Total RNA was extracted, and 1 μg of total RNA was reverse transcribed with a reverse transcription kit. IL-8 mRNA expression was quantified by real-time quantitative PCR (qPCR). The comparative threshold cycle (CT) method was used for relative quantification of PCR products after IL-8 was normalised to TBP (ΔCt=CtIL-8−CtTBP). […] C After treatment, IL-8 in supernatant was measured by ELISA. The IL-8 stimulation of cells treated with test drug +TNFα were expressed as fold compared to drug −TNFα. […]
Cells were lysed with the Passive Lysis Buffer (Promega), and luciferase activity in the cellular extracts was determined by the Dual Luciferase Assay System (Promega) using a luminometer (Tristar; Berthold). The results were normalized to those obtained with the Renilla luciferase reference plasmid used to control the transfection efficiency, and the values were expressed as luminescence intensity (Luciferase/Renilla). […]

Question: For CC1=C(CC(=O)O)c2cc(F)ccc2/C1=C\c1ccc([S+](C)[O-])cc1 (stereo not shown) [sulindac, (Z)-5-fluoro-2-methyl-1-[p-(methylsulfinyl)benzylidene]-indene-3-acetic acid], which IL-8 transcription is on record?
Answer: The IL-8 transcription was “decreased IL-8 transcription”.
